From patent US10021901B2, “Antimicrobial mixture of aldehydes, organic acids and fatty acid esters” (ANITOX CORPORATION, priority 2011, dated 2018)
Values after ≈ are worked out from the molar mass of the structure shown. Read-outs that look alike come from different tables or passages of the source.

Legend:
[1] = tested on: Salmonella typhimurium (ATTC:14028); experiment: Organic acid esters against Salmonella typhimurium in test tubes (Example 1); type: cell-based; settings: for killing at 0.01 % / killing at 0.05 %: Salmonella enterica, TYPHIMURIUM, read-out: Reduction (% Reduction) of Salmonella typhimurium in vitro
Protocol: Methyl and ethyl esters of organic acids were added to test tubes at concentrations of 0.01% and 0.05%. Tubes were vortexed for 10 seconds to uniformly mix the solution. A suspension of Salmonella typhimurium (ATTC:14028) was added to each test tube to achieve a final concentration of 10^4 cfu/ml. The solutions were vortexed, incubated at room temperature for 24 hours and plated on XLT-4 agar. Plates were incubated for 48 hours at 37° C. before enumerating colonies.

[2] = tested on: Staphylococcus aureus, E. coli and Salmonella typhimurium; settings: cited from earlier work
[3] = tested on: M. gypseum; settings: cited from earlier work
[4] = tested on: yeast (10^5 CFU/bottle) in beverages; settings: cited from earlier work
[5] = tested on: Helicobacter pylori and S. cholerasuis; settings: Kubo 1999; Kubo and Fujita 2001; cited from earlier work
[6] = tested on: B. cereus, S. typhimurium, V. parahaemolyticus, L. monocytogenes, S. aureus and E. coli O157:H7; settings: cited from earlier work
[7] = tested on: P. syringae pathovars; settings: vapour; cited from earlier work
[8] = tested on: E. coli; settings: vapour; cited from earlier work
[9] = tested on: Phoma mycelium; settings: cited from earlier work
[10] = tested on: Penicillium expansum; settings: blue mold; cited from earlier work
[11] = tested on: A. flavus, P. notatum, A. alternate, F. oxysporum, Cladosporium spp., B. subtilis and A. tumerfaciens; settings: cited from earlier work
[12] = tested on: apricots, peaches and nectarines; settings: cited from earlier work
[13] = Ethyl Ester, 0.01% Dilution, 24 hours room temperature, compared to control
[14] = Ethyl Ester, 0.05% Dilution, 24 hours room temperature, compared to control
[15] = Methyl Ester, 0.01% Dilution, 24 hours room temperature, compared to control
[16] = Methyl Ester, 0.05% Dilution, 24 hours room temperature, compared to control

CCCCCCCCCCCC(=O)OCC [Lauric (dodecanoic) acid Ethyl Ester]
Reduction (% Reduction) of Salmonella typhimurium in vitro [1, 13]: 0%
Reduction (% Reduction) of Salmonella typhimurium in vitro [1, 14]: 0%

CCCC(=O)OC [Butyric acid Methyl Ester]
killing at 0.01 % ([1]; 24 h): 0%
killing at 0.05 % ([1]; 24 h): 28%

CCOC(=O)CCC(C)=O [Levulinic acid Ethyl Ester]
killing at 0.01 % [1, 13]: 0%
killing at 0.05 % [1, 14]: 8%

CCOC(C)=O [Acetic acid Ethyl Ester]
killing at 0.01 % [1, 13]: 0%
killing at 0.05 % [1, 14]: 0%

CCOC(=O)CC(C)C [Isovaleric acid Ethyl Ester]
killing at 0.01 % [1, 13]: 61%
killing at 0.05 % [1, 14]: 100%

COC(=O)c1ccccc1 [Benzoic acid Methyl Ester, Methyl benzoate]
killing at 0.01 % ([1]; 24 h): 34%
killing at 0.05 % ([1]; 24 h): 100%

COC(=O)CCC(C)=O [Levulinic acid Methyl Ester]
killing at 0.01 % [1, 15]: 0%
killing at 0.05 % [1, 16]: 12%

COC(=O)C(C)C [Isobutyric acid Methyl Ester]
killing at 0.01 % [1, 15]: 3%
killing at 0.05 % [1, 16]: 41%

COC(C)=O [Acetic acid Methyl Ester]
killing at 0.01 % [1, 15]: 0%
killing at 0.05 % [1, 16]: 29%

CCCCCC(=O)OC [Caproic (hexanoic) acid Methyl Ester, Methyl hexanoate]
killing at 0.01 % [1, 15]: 99%
killing at 0.05 % [1, 16]: 100%

CCCCC/C=C\C/C=C\CCCCCCCC(=O)OC [Linoleic acid Methyl Ester, methyl linoleate]
killing at 0.01 % [1, 15]: 14%
killing at 0.05 % [1, 16]: 0%

COC(=O)CC(=O)O [Malonic acid Methyl Ester]
killing at 0.01 % [1, 15]: 13%
killing at 0.05 % [1, 16]: 9%

CCCCCC(=O)OCC [Caproic (hexanoic) acid Ethyl Ester, Ethyl hexanoate]
killing at 0.01 % [1, 13]: 100%
killing at 0.05 % [1, 14]: 100%

CC/C=C/CC=O [trans-3-hexenal]
level effective in controlling bacteria [2]: 3 to 30 µg/mL

CCCCC/C=C\C/C=C\CCCCCCCC(=O)OCC [Linoleic acid Ethyl Ester]
killing at 0.01 % [1, 13]: 0%
killing at 0.05 % [1, 14]: 0%

CCCCC(=O)OCC [Valeric (pentanoic) acid Ethyl Ester, Ethyl pentanoate]
killing at 0.01 % ([1]; 24 h): 93%
killing at 0.05 % ([1]; 24 h): 100%

CCCCCCCCCC(=O)O [capric acid, reference compound]
minimum inhibitory concentration (MIC) ([3]; liquid media): 75 µg/mL (≈ 435 µM)
minimum inhibitory concentration (MIC) ([3]; solid media): 20 µg/mL (≈ 116 µM)

CC(=O)OCCC(C)C [Isoamyl acetate]
Effectiveness against Salmonella in words ([1]; 0.01% and 0.05%): bactericidal activity
killing at 0.01 % ([1]; isoamyl acetate itself, 0.01% Dilution, 24 hours): 44%
killing at 0.05 % ([1]; isoamyl acetate itself, 0.05% Dilution, 24 hours): 100%

CC(C)=CCCC(C)=CC=O [citral, reference compound]
equivalent concentration for control of yeast ([4]; equivalent to 25 ppm trans-2-hexenal and thermal treatment): 100-120 ppm

CCCCCCCCC(=O)O [nonanoic acid]
minimum inhibitory concentration (MIC) ([3]; liquid media): 50 µg/mL (≈ 316 µM)
minimum inhibitory concentration (MIC) ([3]; solid media): 40 µg/mL (≈ 253 µM)

CCOC(=O)c1ccccc1 [Benzoic acid Ethyl Ester, Ethyl benzoate]
killing at 0.01 % ([1]; 24 h): 100%
killing at 0.05 % ([1]; 24 h): 100%

CCCCCCCC(=O)OCC [Caprylic (octanoic) acid Ethyl Ester]
Reduction (% Reduction) of Salmonella typhimurium in vitro [1, 13]: 66%
Reduction (% Reduction) of Salmonella typhimurium in vitro [1, 14]: 65%

CCOC(=O)CC(=O)O [Malonic acid Ethyl Ester]
killing at 0.01 % [1, 13]: 36%
killing at 0.05 % [1, 14]: 57%

CCCCCCCCCC(=O)OC [Capric (decanoic) acid Methyl Ester]
Reduction (% Reduction) of Salmonella typhimurium in vitro [1, 15]: 8%
Reduction (% Reduction) of Salmonella typhimurium in vitro [1, 16]: 0%

COC=O [Formic acid Methyl Ester]
killing at 0.01 % [1, 15]: 0%
killing at 0.05 % [1, 16]: 5%

CCCC(=O)OCC [Butyric acid Ethyl Ester, Ethyl butyrate]
killing at 0.01 % [1, 13]: 28%
killing at 0.05 % [1, 14]: 100%

CCCCCCCCCC(=O)OCC [Capric (decanoic) acid Ethyl Ester]
Reduction (% Reduction) of Salmonella typhimurium in vitro [1, 13]: 0%
Reduction (% Reduction) of Salmonella typhimurium in vitro [1, 14]: 0%

CCCCCCCCCCCC(=O)OC [Lauric (dodecanoic) acid Methyl Ester, Methyl laurate]
killing at 0.01 % [1, 15]: 1%
killing at 0.05 % [1, 16]: 0%

CCCCCCCCCCCCCC(=O)OCC
Reduction (% Reduction) of Salmonella typhimurium in vitro [1, 13]: 12%
Reduction (% Reduction) of Salmonella typhimurium in vitro [1, 14]: 8%

CCC(=O)OC [Propionic acid Methyl Ester]
killing at 0.01 % ([1]; 24 h): 9%
killing at 0.05 % ([1]; 24 h): 19%

CCC/C=C/C=O [trans-2-hexenal]
minimum biocidal activity [5]: 800 µg/mL
minimum inhibitory activity [5]: 400 µg/mL
effective concentration [6]: 247 mg/L
concentration that completely inhibited proliferation [7]: 570 μg/L of air
concentration that completely inhibited proliferation [8]: 930 micrograms/L of air
concentration effective on inhibiting growth [9]: 250 µg/mL
concentration effective on controlling Penicillium expansum [10]: 12.5 μl/l
concentration that completely inhibited growth [11]: 8 ng/l air
concentration necessary to control microorganisms ([4]; beverages not thermally treated): 35 ppm
concentration for control of yeast ([4]; with thermal treatment (56° C. for 20 min), equivalent to citral): 25 ppm
phytotoxicity ([12]; apricots): not phytotoxic
phytotoxic concentration ([12]; peaches and nectarines): 40 μl/l

CCOC(=O)CC [Propionic acid Ethyl Ester]
killing at 0.01 % [1, 13]: 0%
killing at 0.05 % [1, 14]: 40%

CCCCCCCCCCCCCC(=O)OC
Reduction (% Reduction) of Salmonella typhimurium in vitro [1, 15]: 43%
Reduction (% Reduction) of Salmonella typhimurium in vitro [1, 16]: 49%

CCCCCCCC(=O)OC [Caprylic (octanoic) acid Methyl Ester, Methyl octanoate]
killing at 0.01 % [1, 15]: 94%
killing at 0.05 % [1, 16]: 94%

CCCCC(=O)OC [Valeric (pentanoic) acid Methyl Ester, Methyl pentanoate]
killing at 0.01 % ([1]; 24 h): 10%
killing at 0.05 % ([1]; 24 h): 100%
